From paper PMC10265587 (European journal of medicinal chemistry, 2022)
Entries after “also recorded” stand apart in the source; their conditions may differ.

Columns and labels:
[1] = target: Keap1-Nrf2 PPI (Keap1 Kelch domain / FITC-9mer Nrf2 peptide amide) (Homo sapiens, UniProt Q14145); assay: Fluorescence polarization; conditions: FP assay, triplicates
[2] = system: Nrf2 target genes GSTM3, HMOX1, NQO1 in NCM460D cells; assay: Expression of Nrf2-ARE regulated genes by RT-qPCR in NCM460D cells; format: cell-based; conditions: NCM460D cells, 100, 10 and 1 μM, 24 h, RT-PCR

Chain of Keap1-Nrf2 PPI (Keap1 Kelch domain / FITC-9mer Nrf2 peptide amide) (Q14145 321-609 limits assumed): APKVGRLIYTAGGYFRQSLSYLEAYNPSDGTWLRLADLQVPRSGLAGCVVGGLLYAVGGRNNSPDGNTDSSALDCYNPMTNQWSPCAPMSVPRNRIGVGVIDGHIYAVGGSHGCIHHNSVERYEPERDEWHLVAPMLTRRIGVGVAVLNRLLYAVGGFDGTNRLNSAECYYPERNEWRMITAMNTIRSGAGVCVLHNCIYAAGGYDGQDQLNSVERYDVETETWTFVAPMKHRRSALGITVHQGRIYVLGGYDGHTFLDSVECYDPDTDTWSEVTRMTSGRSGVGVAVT

| SMILES | inhibition at 5 µM [1] | transcription (mRNA levels) of Nrf2 target genes GSTM3, HMOX1 and NQO1 [2] |
| --- | --- | --- |
| COc1ccc(S(=O)(=O)N(CC(=O)O)c2ccc(N(CC(=O)O)S(=O)(=O)c3ccc(OC)cc3)c(N3CCCCC3)c2)cc1 [7b, 2-(Piperidin-1-yl)-1,4-bis(4-methoxyphenylsulfonamido)benzene-N,N'-diacetic acid] | ~50% | – |
| Cc1ccc(S(=O)(=O)N(CC(=O)O)c2ccc(N(CC(=O)O)S(=O)(=O)c3ccc(C)cc3)c(OCc3ccc(F)cc3)c2)cc1 [7v, 2-(4-Fluorobenzyloxy)-1,4-bis(4-methylphenylsulfonamido)benzene-N,N'-diacetic acid] | – | no effects |
| Cc1ccc(S(=O)(=O)N(CC(=O)O)c2cc(OCc3ccc(F)cc3)c(N(CC(=O)O)S(=O)(=O)c3ccc(C)cc3)c3ccccc23)cc1 [12d, 2-(4-Fluorobenzyloxy)-1,4-bis(4-methylphenylsulfonamido)naphthalene-N,N'-diacetic acid] | – | significantly increased; also recorded: effectively stimulate transcription |
